US12564206B2, “Multi-supplement food-additive” (THE GOVERNING COUNCIL OF THE UNIVERSITY OF TORONTO, priority 2019, dated 2026)
Where two headings read alike, the source gives them in different places.

Tests used:
[1] = Accelerated kinetic study of folic acid and iodine degradation in spray solution; assay type: physicochemical; settings: for degradation constant in spray solution: first order; for activation energy for degradation in the solution: Arrhenius plot
Experimental: An accelerated kinetic study was conducted to evaluate the stability of the micronutrients in the premixes and solution. The stability of folic acid and iodine in the spray solution was evaluated, and the stability of B12 in the various premixes was evaluated. The solution and premix were stored at 50, 60, 70 and 80 degrees C. for 7 days. For the solution, samples (250 mL) were stored in 400 mL Fisherbrand Glass Bottles. About 1 mL of the samples were collected from the bottles at days 1, 3, 5 and 7, and stored at −20 degrees C. before analysis. For the premix, 1 g was weighed into aluminium weighing dishes. At days 1, 3, 5 and 7, samples were pulverized in a mortar and pestle. Vitamin B12 was extracted with 0.1 M Na2CO3. The crude extract was filtered (0.45 um) and stored at −20 degrees C. before analysis.

[2] = 30 min, 2 mg/mL
Experimental: The effect of boiling on the stability of folic acid and vitamin B12 was assessed, in order to mimic food preparation. A known amount of folic acid (0.5 g) was weighed into 250 ml of boiling water. Boiling was continued for 30 minutes. At 1, 5, 10, 15, 20, 25, and 30 minutes, the solution was made up to 250 ml, and then 1 ml of the solution was measured out into a centrifuge vial. The same procedure was followed for B12.

[3] = cited from earlier work
[4] = L*a*b* colour analysis of salt sprayed with folic acid; assay type: physicochemical
Experimental: While this example was successful, it was observed that the addition of folic acid by spraying can impact the colour of the salt (i.e. a yellow color is observed), which may impact the acceptance of the salt. Accordingly, the inclusion of the folic acid in the premix was evaluated. […] The two other premix samples contained an iron micronutrient, folic acid, and vitamin B12; in one of these two, all of the micronutrients were in the core of the premix, while in the other, folic acid was separated from the iron micronutrient and vitamin B12 by a layer of TiO2.

[5] = Stability of spray solutions on storage; settings: for retained in spray solution: after 2 months of storage
Experimental: Formulation and Storage of Spray Solution: Seven sets of spray solutions were formulated, containing folic acid, vitamin B12, iodine, sodium ascorbate, sodium citrate and/or sodium carbonate, as described in Table 1. The stability of the solutions was monitored for 2 months at 25, 35, and 45 degrees C.
(§1) Folic Acid Analysis: For the spray solution, samples were diluted with 0.1 M Na2CO3 at ratio 1:1000 v/v and the absorbance of the resulting solution was read at 285 nm. For the salt samples, 5 g aliquots were dissolved in 0.1 M Na2CO3 (10 mL) in a falcon tube. The solution was mixed on a vortex mixer for 2 minutes and filtered with a 0.45 μm syringe filter. The absorbance of the filtrate was immediately read at 285 nm.
(§2) Iodine Analysis: Method 33.149, described by the Association of Official Analytical Chemists (AOAC), was used for iodine quantification in salt and spray solutions (Association of Official Analytical Chemists, 1984). In this method, iodate is reduced to iodine and titrated with sodium thiosulfate using a starch indicator.
Vitamin B12 Analysis: The iron-B12 premix was pulverized with a mortar and pestle. The pulverized premix (5 g) was weighed into 50 mL falcon tube, and 10 mL of RO water was added and mixed with a vortex mixer for 2 minutes. This was centrifuged for 2 minutes. The supernatant was filtered with a 0.45 micron filter. Vitamin B12 in the filtrate was quantified using UHPLC-MS.

[6] = Earlier double fortified salt, storage stability; assay type: physicochemical; settings: 5 month period, ambient conditions
Source text: Applicant has previously attempted to develop folic acid and iodine spray solutions to investigate the stability of triple fortified salt containing iodine, folic acid and microencapsulated ferrous fumarate.

[7] = Stability of folic acid and iodine in fortified salt on storage; settings: for micronutrient retained in quadruple fortified salt: 6 months storage at 25, 35 and 45 degrees C, 60-70% RH, all cases
Experimental: However, for comparative study, a solution containing folic acid, iodine and vitamin B12 (spray solution 2 in Table 1) was also used. The solutions (2.5 mL) were sprayed on salt (1 kg) inside a ribbon blender and thoroughly mixed for 20 minutes. The salt samples were dried overnight. The dried salt was returned to the ribbon blender and mixed with premix samples for 2 minutes. Iron premix (i.e. particles containing iron without any B12 or other fortificants) and three of the four iron-B12 premixes were used (adding B12 to TiO2 was not further tested). The target concentrations of the fortificants were 1000 microgram/gram iron, 50 microgram/gram iodine, 25 microgram/gram folic acid and 0.25 microgram/gram vitamin B12.
The fortified salts were divided by solid sample splitter glassware into three portions. Each portion was stored at ambient conditions (25 degrees C.), 35 degrees C. and 60-70% RH, and 45 degrees C. and 60-70% RH. The stability of folic acid and iodine in the salt was monitored over a period of six months.
as §1, §2

[8] = Stability of vitamin B12 in iron-B12 premix on storage; assay type: physicochemical; settings: room temperature, six months; premix made by three approaches (core, spray, HPMC)
Source text: Production of Iron-B12 Premix: Given the instability of vitamin B12 in the spray solutions (as described below with respect to FIG. 4), vitamin B12 was removed from the spray solutions and incorporated into separate particles with the iron micronutrient, as a multi-supplement food-additive, described above (also referred to herein as an ‘iron-B12 premix’). For the iron-B12 premix, 25% TiO2 was used for color masking, and 5% HPMC and 5% soy stearin as the encapsulating coating. […] The stability of vitamin B12 in each iron-B12 premix was evaluated for six months.
This was centrifuged for 2 minutes.

[9] = 12.5 microgram/gram folic acid in salt
[10] = 25 microgram/gram folic acid in salt

Question: For `Nc1nc2ncc(CNc3ccc(C(=O)N[C@@H](CCC(=O)O)C(=O)O)cc3)nc2c(=O)[nH]1` [folic acid], which “degradation constant in spray solution” value ([1]; 60 degrees C) is on record?
Answer: The value was 0.0349 day⁻¹.

Question: And the “degradation constant in spray solution” value ([1]; 70 degrees C)?
Answer: The value was 0.0411 day⁻¹.

Question: What about the “degradation constant in spray solution” value ([1]; 80 degrees C) of the same molecule?
Answer: Its value is 0.0531 day⁻¹.

Question: And the “activation energy for degradation in the solution” value [1]?
Answer: The value was 20.60 kJ/mol.

Question: What about the retained after boiling [2] of the same molecule?
Answer: The retained after boiling was “About 93%”.

Question: And the solubility in water [3]?
Answer: The solubility in water was “sparingly soluble”.

Question: And the “L* of salt” value [4, 9]?
Answer: The value was 95.43.

Question: And the “a* of salt” value [4, 9]?
Answer: Its value is −1.53.

Question: And the “b* of salt” value [4, 9]?
Answer: The value was 8.44.

Question: What about the “L* of salt” value [4, 10] of the same molecule?
Answer: The value was 94.27.

Question: What about the “a* of salt” value [4, 10] of the same molecule?
Answer: The value was −2.92.

Question: What about the “b* of salt” value [4, 10] of the same molecule?
Answer: Its value is 13.50.

Question: What about the stability in solution [5] of the same molecule?
Answer: Its stability in solution is “very stable”.

Question: And the “retained in spray solution” value [5]?
Answer: The value was about 80%.

Question: What about the “micronutrient retained in double fortified salt” value [6] of the same molecule?
Answer: The value was 100%.

Question: And the “micronutrient retained in quadruple fortified salt” value [7]?
Answer: Its value is 74-97%.

Question: And the “improvement of folic acid stability with vitamin B12 in core vs other parts of the premix” value ([7]; QFS, six months, all temperatures)?
Answer: The value was 11-15%.

Question: With `II` [iodine, potassium iodate] as the molecule, how does the “degradation constant in spray solution” value ([1]; 60 degrees C) read?
Answer: The value was 0.0337 day⁻¹.

Question: What about the “degradation constant in spray solution” value ([1]; 70 degrees C) of the same molecule?
Answer: Its value is 0.0432 day⁻¹.

Question: What about the “degradation constant in spray solution” value ([1]; 80 degrees C) of the same molecule?
Answer: The value was 0.0568 day⁻¹.

Question: What about the “activation energy for degradation in the solution” value [1] of the same molecule?
Answer: The value was 25.49 kJ/mol.

Question: What about the “retained in spray solution” value [5] of the same molecule?
Answer: The value was “about 90%”.

Question: And the stability in solution ([5]; the spray solutions (FIG. 4))?
Answer: The stability in solution was “very stable”.

Question: What about the “micronutrient retained in double fortified salt” value [6] of the same molecule?
Answer: Its value is 100%.

Question: What about the “micronutrient retained in quadruple fortified salt” value [7] of the same molecule?
Answer: Its value is 85-100%.

Question: And the “improvement of iodine stability with vitamin B12 in core vs other parts of the premix” value ([7]; QFS, 45 degrees C, six months)?
Answer: The value was 6-15%.

Question: For vitamin B12, which “B12 retained in iron-B12 premix” value [8] is on record?
Answer: Its value is “over 97%”.

Question: And the solubility in water [3]?
Answer: The solubility in water was “very soluble”.

Question: What about the stability in solution [5] of the same molecule?
Answer: Its stability in solution is “very stable”.

Question: And the “vitamin B12 lost in spray solution” value ([5]; spray solution at lower pH (8), 2 months storage)?
Answer: The value was over 50%.

Question: What about the “vitamin B12 lost in spray solution” value ([5]; spray solution pH 9, 2 months storage at 45 degrees C and 70% RH) of the same molecule?
Answer: Its value is about 100%.
